# Test results from ChEMBL document CHEMBL6071161, “Drug repurposing against antibiotic resistant bacterial pathogens” (2024).
# How the values were obtained:
# Assay type in all cases: functional
# Klebsiella pneumoniae [1] = experiment: Antibacterial activity against Klebsiella pneumoniae ATCC 10031 assessed as reduction in microbial growth after 24 hrs by two-fold serial dilution method
# Klebsiella pneumoniae [2] = experiment: Antibacterial activity against Klebsiella pneumoniae ATCC 700603 assessed as reduction in bacterial growth by microbroth dilution assay
# Neisseria gonorrhoeae [3] = experiment: Antibacterial activity against resistant Neisseria gonorrhoeae assessed inhibition of bacterial growth
# Neisseria gonorrhoeae [4] = experiment: Antibacterial activity against Neisseria gonorrhoeae ATCC 49226 assessed as reduction in bacterial growth incubated for 20 to 24 hrs by CLSI-based protocol based two-fold serial microdilution method; settings: time 20-24 hrs
# Helicobacter pylori [5] = experiment: Antibacterial activity against Helicobacter pylori ATCC 43504 assessed as reduction in bacterial growth incubated for 24 hrs by broth micro-dilution method
# Acinetobacter baumannii = experiment: Antibacterial activity against Acinetobacter baumannii BAA-1605 assessed as reduction in bacterial growth
# Helicobacter pylori [6] = experiment: Antibacterial activity against Helicobacter pylori ATCC 700392 assessed as reduction in bacterial growth incubated for 24 hrs by broth micro-dilution method
# Pseudomonas aeruginosa [7] = experiment: Antibacterial activity against Pseudomonas aeruginosa ATCC 27853 assessed as reduction in bacterial growth by broth microdilution method
# Staphylococcus aureus [8] = experiment: Antibacterial activity against Staphylococcus aureus ATCC 25923 assessed as reduction in microbial growth after 24 hrs by two-fold serial dilution method
# Staphylococcus aureus [9] = experiment: Antimicrobial activity against Staphylococcus aureus ATCC 25923 assessed as reduction in microbial growth after 24 hrs by CLSI based broth microdilution method
# Enterococcus faecium [10] = experiment: Antibacterial activity against Enterococcus faecium assessed as reduction in bacterial growth
# Staphylococcus aureus [11] = experiment: Antibiofilm activity against Staphylococcus aureus ATCC 25923 assessed as inhibition of biofilm formation incubated for 24 hrs by crystal violet staining based analysis
# Staphylococcus aureus [12] = experiment: Antibacterial activity against methicillin-resistant Staphylococcus aureus ATCC 43300 assessed as reduction in bacterial growth by CLSI protocol based broth micro-dilution method
# Helicobacter pylori [13] = experiment: Antibacterial activity against Helicobacter pylori assessed as inhibition of bacterial growth by broth micro-dilution assay
# Staphylococcus aureus [14] = experiment: Antimicrobial activity against […] Staphylococcus aureus ATCC 25923 assessed as reduction in microbial growth by CLSI protocol based analysis
# Staphylococcus aureus [15] = experiment: Antimicrobial activity against methicillin-sensitive Staphylococcus aureus ATCC 29213 assessed as reduction in bacterial growth by CLSI protocol based analysis
# Pseudomonas aeruginosa [16] = experiment: Antibacterial activity against Pseudomonas aeruginosa PAO1 assessed as bacterial growth inhibition measured after 18 hrs by CLSI protocol based two-fold serial microdilution method
# Pseudomonas aeruginosa [17] = experiment: Antibacterial activity against Pseudomonas aeruginosa ATCC 27853 assessed as bacterial growth inhibition measured after 18 hrs by CLSI protocol based two-fold serial microdilution method
# Neisseria gonorrhoeae [18] = experiment: Antibacterial activity against Neisseria gonorrhoeae
# Staphylococcus aureus [19] = experiment: Antimicrobial activity against methicillin-resistant Staphylococcus aureus ATCC 29213 assessed as reduction in microbial growth by CLSI brith micro-dilution method
# Staphylococcus aureus [20] = experiment: Antibacterial activity against vancomycin-resistant Staphylococcus aureus VRS 1 assessed as reduction in bacterial growth
# Enterococcus faecium [21] = experiment: Antibacterial activity against vancomycin-resistant Enterococcus faecium assessed as reduction in bacterial growth CLSI-based double dilution method
# Staphylococcus aureus [22] = experiment: Antibacterial activity against methicillin-resistant Staphylococcus aureus ATCC 43300 assessed as reduction in bacterial growth by CLSI protocol based two-fold serial broth microdilution method
# Enterococcus faecalis [23] = experiment: Antibacterial activity against […] Enterococcus faecalis ATCC 29212 assessed as reduction in bacterial growth by CLSI protocol based two-fold serial broth microdilution method
# Enterococcus faecalis [24] = experiment: Antimicrobial activity against Enterococcus faecalis ATCC 29212 assessed as reduction in microbial growth incubated for 16 to 20 hrs by CLSI-protocol based Mueller-Hinton broth assay; settings: time 16-20 hrs
# Enterococcus faecium [25] = experiment: Antibacterial activity against Enterococcus faecium
# Staphylococcus aureus [26] = experiment: Antibacterial activity against Staphylococcus aureus RN4220 assessed as inhibition of microbial growth
# Pseudomonas aeruginosa [27] = experiment: Antibacterial activity against Pseudomonas aeruginosa assessed as inhibition of bacterial growth incubated for 24 hrs by broth microdilution method
smiles,measurement,setting,value
Cc1cc(C2CCCCC2)n(O)c(=O)c1 [CICLOPIROX],MIC,Klebsiella pneumoniae [1],5 µg/mL
Nc1c2ccccc2nc2ccccc12 [AMINACRINE],MIC,Klebsiella pneumoniae [2],8 µg/mL
Cc1c(Cl)cccc1Nc1ccccc1C(=O)O [TOLFENAMIC ACID],MIC50,Neisseria gonorrhoeae [3],4 µg/mL
Oc1c(I)cc(Cl)c2cccnc12 [CLIOQUINOL],MIC,Neisseria gonorrhoeae [4],0.28 µM
CN[C@H]1CC[C@@H](c2ccc(Cl)c(Cl)c2)c2ccccc21 [SERTRALINE],MIC,Helicobacter pylori [5],32 µg/mL
CO[C@@]12[C@H](COC(N)=O)C3=C(C(=O)C(C)=C(N)C3=O)N1C[C@@H]1N[C@@H]12 [MITOMYCIN],MIC,Acinetobacter baumannii,20 µg/mL
CCOC(=O)C1=C(C)NC(C)=C(C(=O)OC)C1c1cccc([N+](=O)[O-])c1 (stereo not given) [NITRENDIPINE],MIC,Helicobacter pylori [6],4 µg/mL
CC/C(=C(\c1ccccc1)c1ccc(OCCNC)cc1)c1ccccc1 [N-DESMETHYLTAMOXIFEN],MIC,Pseudomonas aeruginosa [7],16 µg/mL
COc1cc(/C=C/C(=O)CC(=O)/C=C/c2ccc(O)c(OC)c2)ccc1O [CURCUMIN],MIC,Staphylococcus aureus [8],100 µg/mL
CN(C)C(=S)SSC(=S)N(C)C [THIRAM],MIC90,Staphylococcus aureus [9],4 µg/mL
Oc1c(Cl)cc(Cl)c2cccnc12 [CHLOROXINE],MIC,Neisseria gonorrhoeae [4],0.28 µM
O=C(Nc1ccc(C(F)(F)F)cc1)Nc1ccc(C(F)(F)F)cc1,MIC,Enterococcus faecium [10],1.6 µM
same,MBEC,Staphylococcus aureus [11],0.78 µmol/L
CC[C@H](c1ccc(O)cc1)[C@@H](CC)c1ccc(O)cc1 [HEXESTROL],MIC,Staphylococcus aureus [12],16 µg/mL
O=C(O)C(=O)CBr [BROMOPYRUVATE],MIC,Helicobacter pylori [13],32 µg/mL
COCCOC(=O)C1=C(C)NC(C)=C(C(=O)OC(C)C)C1c1cccc([N+](=O)[O-])c1 (stereo not given) [NIMODIPINE],MIC,Helicobacter pylori [6],4 µg/mL
CC1=NN(c2ccc(C)c(C)c2)C(=O)/C1=N\Nc1cccc(-c2cccc(C(=O)O)c2)c1O [ELTROMBOPAG],MIC,Staphylococcus aureus [14],2 µg/mL
same,MIC,Staphylococcus aureus [15],2 µg/mL
N[C@@H](CC(=O)N1CCn2c(nnc2C(F)(F)F)C1)Cc1cc(F)c(F)cc1F [SITAGLIPTIN],MIC,Pseudomonas aeruginosa [16],16 µg/mL
CN[C@@H]1[C@@H](O[C@H]2O[C@H](CO)[C@@H](N)[C@H](O)[C@H]2O)O[C@H]2C[C@@H](N)[C@@H](O[C@H]3[C@H](O)[C@@H](O)[C@H](N)C[C@@H]3N)O[C@@H]2[C@@H]1O,MIC,Pseudomonas aeruginosa [17],32 µg/mL
NC(=O)c1ccccc1O [SALICYLAMIDE],MIC,Neisseria gonorrhoeae [3],8 µg/mL
O=C(O)c1ccccc1Nc1cccc(C(F)(F)F)c1 [FLUFENAMIC ACID],MIC50,Neisseria gonorrhoeae [3],4 µg/mL
CN(C)Cc1ccc2c(Cl)cc(Cl)c(O)c2n1,MIC,Neisseria gonorrhoeae [18],0.31 µg/mL
Cc1ccc(-c2cc(C(F)(F)F)nn2-c2ccc(S(N)(=O)=O)cc2)cc1 [CELECOXIB],MIC,Staphylococcus aureus [19],32 µg/mL
same,MIC,Staphylococcus aureus [20],128 µg/mL
CC/C(=C(\c1ccc(O)cc1)c1ccc(OCCN(C)C)cc1)c1ccccc1 [AFIMOXIFENE],MIC,Pseudomonas aeruginosa [7],16 µg/mL
O=C(Nc1ccc([N+](=O)[O-])cc1Cl)c1cc(Cl)ccc1O [NICLOSAMIDE],MIC,Enterococcus faecium [21],1 µg/mL
same,MIC,Staphylococcus aureus [22],0.06 µg/mL
same,MIC,Enterococcus faecalis [23],0.125 µg/mL
CC(C)Oc1ccc(/C=N/NC(=N)N/N=C/c2ccc(OC(C)C)cc2)cc1,MIC,Enterococcus faecalis [24],1 µg/mL
CN[C@H](CC(C)C)C(=O)N[C@H]1C(=O)N[C@@H](CC(N)=O)C(=O)N[C@H]2C(=O)N[C@H]3C(=O)N[C@H](C(=O)N[C@H](C(=O)O)c4cc(O)cc(O)c4-c4cc3ccc4O)[C@H](O)c3ccc(c(Cl)c3)Oc3cc2cc(c3O[C@@H]2O[C@H](CO)[C@@H](O)[C@H](O)[C@H]2O[C@H]2C[C@](C)(N)[C@H](O)[C@H](C)O2)Oc2ccc(cc2Cl)[C@H]1O [VANCOMYCIN],MIC,Enterococcus faecium [25],8 µg/mL
O=C(Nc1cc(Cl)cc(Cl)c1O)c1c(O)c(Cl)cc(Cl)c1Cl [OXYCLOZANIDE],MIC,Staphylococcus aureus [26],0.125 µg/mL
Oc1c(I)cc(I)c2cccnc12 [IODOQUINOL],MIC,Neisseria gonorrhoeae [4],0.1 µM
NC[C@H]1O[C@H](O[C@H]2[C@H](O)[C@@H](O[C@H]3O[C@H](CO)[C@@H](O)[C@H](N)[C@H]3O)[C@H](N)C[C@@H]2N)[C@H](N)C[C@@H]1O [TOBRAMYCIN],MIC90,Pseudomonas aeruginosa [27],2.2 µg/mL
Oc1cccc2cccnc12 [OXYQUINOLINE],MIC,Neisseria gonorrhoeae [4],0.08 µM
